Measurements: PubChem BioAssay AID248 (DTP/NCI, 2004)
Several values for one entry are separate records, joined by “and”; a condition that tells them apart may be missing. Identical values can stand only once. Inconclusive results and toxic doses are left out.

Test system: L1210 leukemia ip in BDF1 mice, survival T/C
Assay: NCI In Vivo Anticancer Drug Screen. Data for tumor model L1210 Leukemia (intraperitoneal) in B6D2F1 (BDF1) mice
Details: endpoint: mean survival time, higher = longer survival
Outline: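 Ratio derived from survival: compound-dosed mice over vehicle-dosed mice, all bearing a transplantable tumor.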

SMILES: [N-]=[N+]=CC(=O)NCC(=O)NN
- T/C (dose: 50.0 mg/kg/injection, schedule: Q01DX Z (sc), vehicle: steriod suspending solution): 101 % of control
- T/C (dose: 50.0 mg/kg/injection, schedule: Q02DX Z (ip), vehicle: saline): 102 % of control
- T/C (dose: 50.0 mg/kg/injection, schedule: Q03DX Z (ip), vehicle: saline): 101 % of control
- T/C (dose: 100.0 mg/kg/injection, schedule: Q01DX001 (ip), vehicle: saline): 108 % of control
- T/C (dose: 100.0 mg/kg/injection, schedule: Q01DX005 (ip), vehicle: other): 114 % of control
- T/C (dose: 100.0 mg/kg/injection, schedule: Q01DX009 (ip), vehicle: other): 115 % of control
- T/C (dose: 100.0 mg/kg/injection, schedule: Q01DX009 (ip), vehicle: saline): 119 % of control
- T/C (dose: 100.0 mg/kg/injection, schedule: Q01DX Z (sc), vehicle: steriod suspending solution): 101 % of control
- T/C (dose: 100.0 mg/kg/injection, schedule: Q02DX Z (ip), vehicle: saline): 108 % of control
- T/C (dose: 100.0 mg/kg/injection, schedule: Q03DX Z (ip), vehicle: saline): 108 % of control
- T/C (dose: 100.0 mg/kg/injection, schedule: Q## X008 (ip), vehicle: water): 98 % of control
- T/C (dose: 125.0 mg/kg/injection, schedule: Q01DX006 (iv), vehicle: saline): 98 % of control
- T/C (dose: 125.0 mg/kg/injection, schedule: Q01DX009 (ip), vehicle: other): 118 % of control
- T/C (dose: 125.0 mg/kg/injection, schedule: Q01DX009 (sc), vehicle: other): 100 % of control
- T/C (dose: 125.0 mg/kg/injection, schedule: Q01DX017 (ip), vehicle: saline): 121 % of control
- T/C (dose: 125.0 mg/kg/injection, schedule: Q01DX Z (ip), vehicle: other): 116 % of control
- T/C (dose: 200.0 mg/kg/injection, schedule: Q01DX001 (ip), vehicle: saline): 110 % of control
- T/C (dose: 200.0 mg/kg/injection, schedule: Q01DX Z (ip), vehicle: water): 124 % of control
- T/C (dose: 200.0 mg/kg/injection, schedule: Q01DX Z (sc), vehicle: steriod suspending solution): 98 % of control
- T/C (dose: 200.0 mg/kg/injection, schedule: Q03DX Z (ip), vehicle: saline): 154 % of control
- T/C (dose: 200.0 mg/kg/injection, schedule: Q## X008 (ip), vehicle: water): 98 % of control
- T/C (dose: 225.0 mg/kg/injection, schedule: Q01DX Z (ip), vehicle: saline): 124 % of control
- T/C (dose: 225.0 mg/kg/injection, schedule: Q01DX Z (ip), vehicle: water): 121 % of control
- T/C (dose: 250.0 mg/kg/injection, schedule: Q01DX006 (iv), vehicle: saline): 106 % of control
- T/C (dose: 250.0 mg/kg/injection, schedule: Q01DX009 (ip), vehicle: other): 156 % of control
- T/C (dose: 250.0 mg/kg/injection, schedule: Q01DX009 (sc), vehicle: other): 108 % of control
- T/C (dose: 250.0 mg/kg/injection, schedule: Q01DX017 (ip), vehicle: saline): 124 % of control
- T/C (dose: 250.0 mg/kg/injection, schedule: Q01DX Z (ip), vehicle: other): 123 % of control
- T/C (dose: 250.0 mg/kg/injection, schedule: Q02DX005 (ip), vehicle: saline): 121 % of control
- T/C (dose: 250.0 mg/kg/injection, schedule: Q04DX003 (ip), vehicle: saline): 110 % of control
- T/C (dose: 250.0 mg/kg/injection, schedule: Q08DX002 (ip), vehicle: other): 112 % of control
- T/C (dose: 250.0 mg/kg/injection, schedule: Q## X005 (ip), vehicle: saline): 111 % of control
- T/C (dose: 300.0 mg/kg/injection, schedule: Q01DX009 (sc), vehicle: other): 118 % of control
- T/C (dose: 375.0 mg/kg/injection, schedule: Q01DX Z (ip), vehicle: other): 160 % of control
- T/C (dose: 400.0 mg/kg/injection, schedule: Q01DX001 (ip), vehicle: saline): 106 % of control
- T/C (dose: 400.0 mg/kg/injection, schedule: Q01DX005 (ip), vehicle: other): 150 % of control
- T/C (dose: 400.0 mg/kg/injection, schedule: Q01DX009 (ip), vehicle: saline): 156 % of control
- T/C (dose: 400.0 mg/kg/injection, schedule: Q01DX Z (im), vehicle: other): 112 % of control
- T/C (dose: 400.0 mg/kg/injection, schedule: Q01DX Z (ip), vehicle: other): 157 % of control
- T/C (dose: 400.0 mg/kg/injection, schedule: Q01DX Z (oral), vehicle: other): 102 % of control
- T/C (dose: 400.0 mg/kg/injection, schedule: Q01DX Z (oral), vehicle: saline): 116 % of control
- T/C (dose: 400.0 mg/kg/injection, schedule: Q## X008 (ip), vehicle: water): 103 % of control
- T/C (dose: 500.0 mg/kg/injection, schedule: Q01DX001 (ip), vehicle: saline): 111 % of control and 117 % of control
- T/C (dose: 500.0 mg/kg/injection, schedule: Q01DX006 (iv), vehicle: saline): 110 % of control
- T/C (dose: 500.0 mg/kg/injection, schedule: Q01DX009 (sc), vehicle: other): 118 % of control
- T/C (dose: 500.0 mg/kg/injection, schedule: Q01DX Z (ip), vehicle: other): 118 % of control and 124 % of control
- T/C (dose: 500.0 mg/kg/injection, schedule: Q01DX Z (ip), vehicle: water): 90 % of control
- T/C (dose: 500.0 mg/kg/injection, schedule: Q## X005 (ip), vehicle: saline): 114 % of control
- T/C (dose: 500.0 mg/kg/injection, schedule: Q## X024 (ip), vehicle: water): 112 % of control
- T/C (dose: 600.0 mg/kg/injection, schedule: Q01DX009 (ip), vehicle: saline): 117 % of control
- T/C (dose: 600.0 mg/kg/injection, schedule: Q01DX Z (im), vehicle: other): 120 % of control
- T/C (dose: 600.0 mg/kg/injection, schedule: Q01DX Z (ip), vehicle: water): 150 % of control
- T/C (dose: 600.0 mg/kg/injection, schedule: Q01DX Z (sc), vehicle: other): 115 % of control
- T/C (dose: 600.0 mg/kg/injection, schedule: Q## X008 (ip), vehicle: water): 109 % of control
- T/C (dose: 750.0 mg/kg/injection, schedule: Q01DX009 (sc), vehicle: other): 118 % of control
- T/C (dose: 750.0 mg/kg/injection, schedule: Q01DX Z (ip), vehicle: other): 123 % of control
- T/C (dose: 800.0 mg/kg/injection, schedule: Q01DX Z (im), vehicle: other): 101 % of control
- T/C (dose: 800.0 mg/kg/injection, schedule: Q01DX Z (ip), vehicle: other): 124 % of control
- T/C (dose: 800.0 mg/kg/injection, schedule: Q01DX Z (oral), vehicle: other): 117 % of control
- T/C (dose: 800.0 mg/kg/injection, schedule: Q01DX Z (oral), vehicle: saline): 122 % of control
- T/C (dose: 800.0 mg/kg/injection, schedule: Q01DX Z (sc), vehicle: other): 91 % of control
- T/C (dose: 800.0 mg/kg/injection, schedule: Q02DX005 (ip), vehicle: saline): 183 % of control
- T/C (dose: 800.0 mg/kg/injection, schedule: Q02DX Z (ip), vehicle: other): 182 % of control
- T/C (dose: 800.0 mg/kg/injection, schedule: Q03DX Z (ip), vehicle: other): 150 % of control
- T/C (dose: 1000.0 mg/kg/injection, schedule: Q01DX001 (ip), vehicle: saline): 115 % of control
- T/C (dose: 1000.0 mg/kg/injection, schedule: Q01DX001 (sc), vehicle: other): 108 % of control
- T/C (dose: 1000.0 mg/kg/injection, schedule: Q01DX006 (iv), vehicle: saline): 109 % of control
- T/C (dose: 1000.0 mg/kg/injection, schedule: Q01DX Z (ip), vehicle: other): 100 % of control
- T/C (dose: 1000.0 mg/kg/injection, schedule: Q02DX009 (ip), vehicle: saline): 119 % of control
- T/C (dose: 1000.0 mg/kg/injection, schedule: Q04DX003 (ip), vehicle: other): 162 % of control
- T/C (dose: 1000.0 mg/kg/injection, schedule: Q04DX003 (ip), vehicle: saline): 156 % of control
- T/C (dose: 1000.0 mg/kg/injection, schedule: Q## X005 (ip), vehicle: saline): 158 % of control
- T/C (dose: 1200.0 mg/kg/injection, schedule: Q02DX Z (ip), vehicle: other): 98 % of control
- T/C (dose: 1200.0 mg/kg/injection, schedule: Q03DX Z (ip), vehicle: other): 156 % of control
- T/C (dose: 1250.0 mg/kg/injection, schedule: Q03HX016 (ip), vehicle: saline): 105 % of control
- T/C (dose: 1500.0 mg/kg/injection, schedule: Q01DX001 (ip), vehicle: other): 150 % of control
- T/C (dose: 1500.0 mg/kg/injection, schedule: Q01DX001 (ip), vehicle: saline): 150 % of control
- T/C (dose: 1500.0 mg/kg/injection, schedule: Q01DX001 (sc), vehicle: other): 107 % of control
- T/C (dose: 1500.0 mg/kg/injection, schedule: Q03HX016 (ip), vehicle: saline): 96 % of control
- T/C (dose: 1500.0 mg/kg/injection, schedule: Q04DX003 (ip), vehicle: saline): 180 % of control
- T/C (dose: 1500.0 mg/kg/injection, schedule: Q08DX002 (ip), vehicle: saline): 164 % of control
- T/C (dose: 1500.0 mg/kg/injection, schedule: Q## X024 (ip), vehicle: water): 154 % of control
- T/C (dose: 1600.0 mg/kg/injection, schedule: Q01DX Z (ip), vehicle: other): 150 % of control
- T/C (dose: 1750.0 mg/kg/injection, schedule: Q03HX016 (ip), vehicle: saline): 102 % of control
- T/C (dose: 2000.0 mg/kg/injection, schedule: Q01DX001 (ip), vehicle: other): 168 % of control
- T/C (dose: 2000.0 mg/kg/injection, schedule: Q01DX001 (sc), vehicle: other): 118 % of control
- T/C (dose: 2000.0 mg/kg/injection, schedule: Q03HX016 (ip), vehicle: saline): 111 % of control
- T/C (dose: 2000.0 mg/kg/injection, schedule: Q## X005 (ip), vehicle: saline): 104 % of control
